Measurements taken from patent US20230212202A1, “TREATMENT OF MGMT DEFICIENT CANCER WITH 2-FLUOROETHYL-SUBSTITUTED NITROSOUREAS AND OTHER COMPOUNDS” (YALE UNIVERSITY, priority 2021, published 2023).

Experiments:
[1] = test system: γH2AX, 53BP1 and pRPA foci in LN229 MGMT+/-, MMR+/- cells; assay: Immunofluorescence foci assays; assay type: cell-based, human; details: 20 µM
Protocol: Immunofluorescence Foci Assays. High-throughput immunofluorescence foci assays were performed at the Yale Center for Molecular Discovery (YCMD). Cells were seeded at 2000 cells/well in black polystyrene flat bottom 384-well plates (Greiner Bio-One) and allowed to adhere overnight. Compound addition was performed utilizing a Labcyte Echo 550 liquid handler (Beckman Coulter), with 6 replicates per test condition and 12 replicates per control condition. Following drug incubation, cells were fixed and stained for phospho-SER139-H2AX (yH2AX), 53BP1, or phospho-SER33-RPA2 (pRPA) as follows.
γH2AX protocol: Cells were fixed with 4% paraformaldehyde in 1X PBS for 15 min, washed twice with 1X PBS, incubated in extraction buffer (0.5% Triton X-100 in 1X PBS) for 10 min, washed twice with 1X PBS, and incubated in blocking buffer (Blocker Casein in PBS, Thermo Scientific + 5% goat serum, Life Technologies) for 1 h. Mouse anti-phospho-histone H2A.X (Ser139) antibody (clone JBW301, Millipore, 05-636) was added 1/1000 in blocking buffer at 4° C. overnight. After washing with 1X PBS, cells were incubated with goat anti-mouse IgG (H+L) highly cross-adsorbed secondary antibody, Alexa Fluor 647 (Invitrogen, A-21236) 1/500 and with 1 µg/mL Hoechst nucleic acid dye in blocking buffer for 2 h, and then washed with 1X PBS. […]

[2] = test system: linearized pUC19 plasmid DNA; assay: In vitro DNA cross-linking assay; assay type: biochemical; details: 100 µM, 6-36 hours
Protocol: Plasmid Linearization Assay. To set up the linearization reactions, 20 units of EcoRI-HF (New England Biolabs) was mixed with 20 µg 2686 bp pUC19 vector DNA in CutSmart buffer (New England Biolabs), pH 7.9, in a total volume of 1000 µL for 30 min at 37° C. The CutSmart buffer contains 50 mM potassium acetate, 20 mM Tris acetate, 10 mM magnesium acetate, and 100 µg/mL BSA. The reacted DNA was then purified using PCR cleanup kit and quantified using the NanoDrop One (Thermo Fisher). The DNA was then stored at -20° C. before use in in vitro DNA cross-linking assays or melting temperature analysis.
In Vitro DNA Cross-linking Assays. Linearized pUC19 DNA, prepared as described above, was used for in vitro DNA cross-linking assays. For each condition, 200 ng of linearized pUC19 DNA (15.4 µM base pairs) was incubated with the indicated concentration of drug in 20 µL. Drug stock concentrations were made in DMSO such that each reaction contained a fixed 5% DMSO concentration. Reactions were conducted in 100 mM Tris buffer (pH 7.4). Cisplatin (Sigma) and DMSO vehicle were used as positive and negative controls, respectively. Reactions were conducted between 3-96 h at 37° C. The DNA was stored at -80° C. until electrophoretic analysis. For gel electrophoresis, DNA concentration was preadjusted to 10 ng/µL. […]

[3] = test system: LN229 MGMT+/-, MMR+/- cells; assay: Clonogenic survival assay; assay type: cell-based, human
Protocol: Clonogenic Cell Survival Assay. Cells were trypsinized, washed, counted, and diluted in a medium containing various concentrations of drug. They were then immediately seeded in six-well plates in triplicate at three-fold dilutions, ranging from 9000 to 37 cells per well. Depending on colony size, these plates were kept in the incubator for 10 to 14 days. After incubation, colonies were washed in phosphate-buffered saline (PBS), stained with crystal violet, counted, and quantified.

[4] = test system: LN229 MGMT-/MMR- flank tumors; assay: Xenograft flank tumor model; assay type: in vivo, mouse

NC(=O)c1ncn2c(=O)n(CCF)nnc12 [KL-50]
γH2AX, 53BP1, pRPA foci formation ([1]; 2 to 48 h): maximal foci response at 48 h, specifically in MGMT- cells and irrespective of MMR status
DDR foci across cell cycle phases ([1]; 48 h): foci formation primarily in the S- and G2-phases
ICLs in plasmid DNA [2]: possessed ICLs, with delayed rates of formation relative to 12b
clonogenic survival, MGMT+ cells ([3]; LN229 MGMT+ cells): minimal toxicity to MGMT+ cells at doses up to at least 200 µM
clonogenic survival, MGMT- cells ([3]; LN229 MGMT- cells, MMR+/-): robust antitumor activity in MGMT- cells, independent of MMR status
tumor growth ([4]; 5 mg/kg MWF × 3 weeks, P.O.): potently suppressed tumor growth
increase in median OS vs TMZ ([4]; Kaplan-Meier): greater than 5 week
median OS ([4]; Kaplan-Meier, 5 mg/kg MWF × 3 weeks): greater than 15 weeks
